Data on 24 compounds can be found in the Kinase Knowledgebase extract (Sharma et al. 2016).

This test has as its target EGFR (human) (UniProt P00533).

pIC50: −log10 of the molar value.

EGFR (human), sequence (P00533 whole entry, looked up): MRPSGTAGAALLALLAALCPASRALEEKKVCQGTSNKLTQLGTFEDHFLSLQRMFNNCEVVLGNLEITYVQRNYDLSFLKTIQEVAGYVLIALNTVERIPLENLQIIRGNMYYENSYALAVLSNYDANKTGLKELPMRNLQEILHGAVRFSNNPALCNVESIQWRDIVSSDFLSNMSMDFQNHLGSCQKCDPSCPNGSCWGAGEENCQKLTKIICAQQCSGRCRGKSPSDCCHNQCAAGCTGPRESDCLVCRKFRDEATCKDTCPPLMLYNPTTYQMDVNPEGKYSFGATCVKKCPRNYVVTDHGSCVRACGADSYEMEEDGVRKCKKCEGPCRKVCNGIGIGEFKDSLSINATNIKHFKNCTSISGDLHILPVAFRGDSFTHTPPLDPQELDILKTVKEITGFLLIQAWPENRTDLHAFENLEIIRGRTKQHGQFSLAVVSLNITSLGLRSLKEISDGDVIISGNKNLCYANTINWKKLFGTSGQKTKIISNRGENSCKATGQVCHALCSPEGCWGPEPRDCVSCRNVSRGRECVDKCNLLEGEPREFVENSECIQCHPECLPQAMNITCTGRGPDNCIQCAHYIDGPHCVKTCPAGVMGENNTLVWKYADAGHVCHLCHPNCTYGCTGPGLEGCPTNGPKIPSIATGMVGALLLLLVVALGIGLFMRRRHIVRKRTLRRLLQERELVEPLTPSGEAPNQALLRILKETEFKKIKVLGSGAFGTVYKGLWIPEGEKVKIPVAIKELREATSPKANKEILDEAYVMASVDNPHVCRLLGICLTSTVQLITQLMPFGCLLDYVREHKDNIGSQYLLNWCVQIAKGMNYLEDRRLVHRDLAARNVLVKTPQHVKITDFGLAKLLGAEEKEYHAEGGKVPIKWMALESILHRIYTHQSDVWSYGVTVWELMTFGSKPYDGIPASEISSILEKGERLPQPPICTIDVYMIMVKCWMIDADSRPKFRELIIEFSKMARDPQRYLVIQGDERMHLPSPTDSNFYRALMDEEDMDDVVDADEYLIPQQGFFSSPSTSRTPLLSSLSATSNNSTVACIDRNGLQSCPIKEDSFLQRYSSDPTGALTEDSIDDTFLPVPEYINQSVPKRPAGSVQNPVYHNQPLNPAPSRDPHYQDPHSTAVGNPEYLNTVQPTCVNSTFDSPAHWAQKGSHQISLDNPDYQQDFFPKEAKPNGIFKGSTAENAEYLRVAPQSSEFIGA

One may read the pIC50 as −log10 of the IC50, conventionally taken in molar units. Read a high pIC50 as a low IC50. As to `Cc1[nH]c(/C=C2\C(=O)Nc3cccc(-c4cccc(F)c4)c32)c(C)c1C(=O)NCCn1ccnn1`, the negative-log IC50 (pIC50) is under 4.70.

`Cc1[nH]c(/C=C2\C(=O)Nc3cccc(-c4ccccc4F)c32)c(C)c1C(=O)N1CCN(C)CC1` had a pIC50 of under 4.70.

For `COc1ccc(-c2cccc3c2/C(=C/c2[nH]c(C)cc2C(=O)NCCN2CCCC2)C(=O)N3)cc1`, the negative logarithm of the IC50 (pIC50) is under 4.70.

In turn, `Cc1[nH]c(/C=C2\C(=O)Nc3cccc(-c4ccc(Br)cc4)c32)c(C)c1C(=O)N1C[C@@H](C)N[C@@H](C)C1` showed a pIC50 of under 4.70.

As to `COc1cccc(-c2cccc3c2/C(=C/c2[nH]c(C)c(C(=O)NCCN(C(C)C)C(C)C)c2C)C(=O)N3)c1`, the pIC50 is under 4.70.

Turning to `Cc1cc(C(=O)N2CC[C@@H](N(C)C)C2)c(/C=C2\C(=O)Nc3cccc(-c4ccc(Cl)cc4)c32)[nH]1`, the pIC50 was under 4.70.

For the compound `Cc1cc(C(=O)N2CC[C@H](N(C)C)C2)c(/C=C2\C(=O)Nc3cccc(-c4cccc(Cl)c4)c32)[nH]1`, the pIC50 was under 4.70.

`CCN(CC)CCNC(=O)c1c[nH]c(/C=C2\C(=O)Nc3cccc(-c4ccc(Br)cc4)c32)c1C` showed a pIC50 of under 4.70.

For the compound `Cc1[nH]c(/C=C2\C(=O)Nc3cccc(-c4ccc(F)cc4)c32)c(C)c1C(=O)N1CCN(C)CC1`, the pIC50 was under 4.70.

Regarding `Cc1cc(C(=O)NCCN2CCCC2)c(/C=C2\C(=O)Nc3cccc(-c4ccc(Br)cc4)c32)[nH]1`, the negative-log IC50 (pIC50) is under 4.70.

In turn, `CCN(CC)CCNC(=O)c1c(C)[nH]c(/C=C2\C(=O)Nc3cccc(-c4cccc(OC)c4)c32)c1C` showed a pIC50 of under 4.70.

`Cc1[nH]c(/C=C2\C(=O)Nc3cccc(-c4ccc(Br)cc4)c32)c(C)c1C(=O)N1CCN(C)CC1`: the pIC50 was under 4.70.

As for `Cc1cc(C(=O)N2C[C@@H](C)N[C@@H](C)C2)c(/C=C2\C(=O)Nc3cccc(-c4cccc(Cl)c4)c32)[nH]1`, the pIC50 was under 4.70.

Regarding `CCN(CC)CCNC(=O)c1c(C)[nH]c(/C=C2\C(=O)Nc3cccc(-c4ccc(OC(F)(F)F)cc4)c32)c1C`, the pIC50 was under 4.70.

In turn, `Cc1[nH]c(/C=C2\C(=O)Nc3cccc(-c4cccc(C(F)(F)F)c4)c32)c(C)c1C(=O)N1CCN(C)CC1` showed a negative-log IC50 (pIC50) of under 4.70.

For `Cc1cc(C(=O)N2C[C@@H](C)N[C@@H](C)C2)c(/C=C2\C(=O)Nc3cccc(-c4ccc(Cl)cc4)c32)[nH]1`, the pIC50 is under 4.70.

Consider `Cc1cc(C(=O)N2CC[C@H](N(C)C)C2)c(/C=C2\C(=O)Nc3cccc(-c4ccc(F)cc4)c32)[nH]1`, for which the pIC50 is under 4.70.

Take `Cc1cc(C(=O)NCCn2ccnn2)c(/C=C2\C(=O)Nc3cccc(-c4cccc(Cl)c4)c32)[nH]1`: the pIC50 is under 4.70.

Take `COc1cccc(-c2cccc3c2/C(=C/c2[nH]c(C)c(C(=O)NCCn4ccnn4)c2C)C(=O)N3)c1`: the pIC50 was under 4.70.

In the case of `Cc1[nH]c(/C=C2\C(=O)Nc3cccc(-c4ccc(Cl)cc4)c32)c(C)c1C(=O)N1CCN(C)CC1`, the pIC50 is under 4.70.

As to `COc1ccc(-c2cccc3c2/C(=C/c2[nH]c(C)c(C(=O)N4C[C@@H](C)N[C@@H](C)C4)c2C)C(=O)N3)cc1`, the negative logarithm of the IC50 (pIC50) was under 4.70.

Take `Cc1cc(C(=O)NCCn2ccnn2)c(/C=C2\C(=O)Nc3cccc(-c4ccccc4F)c32)[nH]1`: the pIC50 is under 4.70.

For `CCN(CC)CCNC(=O)c1c(C)[nH]c(/C=C2\C(=O)Nc3cccc(-c4ccccc4)c32)c1C`, the negative logarithm of the IC50 (pIC50) was under 4.70.

On to `Cc1cc(C(=O)NCCN2CCCC2)c(/C=C2\C(=O)Nc3cccc(-c4ccc(F)c(Cl)c4)c32)[nH]1`, for which the pIC50 is under 4.70.
